Data: patent US20250059610A1, “METHODS OF TREATING TUMOR” (priority 2017, published 2025)

Assays:
[1] = test system: NSCLC with ≥50% PD-L1 expression; conditions: first-line; cited from earlier work
[2] = test system: recurrent small cell lung cancer (SCLC); assay: Clinical trial of nivolumab alone or with ipilimumab in SCLC, exploratory TMB analysis; type: in vivo, human
Text: Subjects were selects who had previously been diagnosed with SCLC, and who had previously received at least one prior platinum-containing regimen (FIG. 23).
The primary objective was to measure the objective response rate (ORR) by per RECIST v1.1. Secondary objectives included monitoring safety, overall survival (OS), progression free survival (PFS), and duration of response (DOR). Prespecified exploratory objectives included biomarker analysis and health status using the EQ-5D instrument.
TMB was determined by whole exome sequencing, using an Illumina HiSeq 2500 using 2×100-bp paired-end reads, and calculated as the total number of nonsynonymous missense mutations in the tumor. For exploratory analyses, patients were divided into 3 subgroups based on TMB tertile.

| Substance | ORR [1] | median PFS [1] | ORR ([2]; high TMB) | ORR ([2]; low TMB) | ORR ([2]; medium TMB) |
| --- | --- | --- | --- | --- | --- |
| pembrolizumab | 45% | 10.3 months |  |  |  |
| ipilimumab: fully human, IgG1 monoclonal antibody that blocks the binding of CTLA-4 to its B7 ligands |  |  | ~46.2% | ~22.2% | ~16.0% |
